Measured values from patent publication US20110281950A1, “COMPOSITIONS AND METHODS FOR REDUCING PROLIFERATION AND VIABILITY OF LYMPHOBLASTOID CELLS” (priority 2010, published 2011).
Where two headings read alike, the source gives them in different places.

Assays:
Format in all cases: cell-based
Purified NK cells [1] = experiment: NK cell IFNγ ELISPOT, continuous treatment or washout (Example 7); conditions: control 569 spots
Source text: (§1) Purified NK cells in DMSO were used as a control. The cells were subsequently analyzed in an IFNγ ELISPOT assay or a ^51Cr release cytotoxicity assay.

[2] = test system: peripheral blood mononuclear cells (PBMCs); experiment: PBMC viability, PI staining and flow cytometry (Example 9); conditions: 100, 250, 500, 1000 nM, 2 and 4 days
Procedure: The effect of AR-42 on the viability of peripheral blood mononuclear cells (PBMCs) was determined. PBMCs were isolated from three random donor leukopaks and incubated with AR-42 (100 nM, 250 nM, 500 nM, 1000 nM) for 2 and 4 days. Viability was assessed by PI staining using flow cytometry. All results were normalized relative to untreated DMSO controls. […] The standard deviations in FIG. 15 represent the mean of the three leukopaks.

[3] = test system: Activated EBV-specific T cells; experiment: T cell ELISPOT with and without AR-42 washout (Example 6); conditions: long-term exposure, 500 nM
Procedure: Activated EBV-specific T cells expanded in the presence of AR-42 were further incubated in media with and without AR-42. After 5 days, the T cells were stimulated with EBV+ LCLs in an ELISPOT assay to determine IFNγ and GzB secretion potentials.

[4] = test system: EBV-specific CD8+ T-cells; experiment: EBV-specific T-cell expansion, RAK tetramer (Example 2A); conditions: 100, 250, 500 nM, two weeks co-culture with irradiated LCLs
Procedure: The effect of AR-42 on EBV-specific T-cell expansion was determined. Irradiated LCLs were added to purified PBMCs and maintained in co-culture for two weeks with AR-42 (100 nM, 250 nM, 500 nM). After two weeks, the EBV-specific T-cell expansion was measured using the RAK tetramer. This tetramer contains the […] peptide which binds the HLA-B8 MHC type I epitope, and can be used to identify EBV-specific (BZLF1 specific) CD8+ T-cells.

purified CD56+ NK cells = experiment: Cell surface protein expression on NK cells, flow cytometry (Example 8); conditions: 24 hours; for expression of activating NK cell receptor NKG2D: AR-42 100, 500 nM, SAHA 100, 1000 nM
Source text: The mechanism by which HDAC inhibition affects NK cell-driven ADCC was investigated in vitro. […] Viable cells were then collected and stained with monoclonal antibodies specific for cell surface proteins with known stimulatory (NKG2D, FcγRIII) or inhibitory (KIR) activity. Protein expression was then quantified via flow cytometry.

Purified NK cells [5] = experiment: NK cell IFNγ and GzB ELISPOT (Example 5); conditions: for NK cell GzB, ELISPOT: untreated control 91 spots; for NK cell IFNγ, ELISPOT: untreated control 314 spots
Procedure: Purified NK cells were initially treated overnight (NK) with 100 nM, 250 nM or 500 nM AR-42. The NK cells were further stimulated using inflammatory cytokines cytokines IL-2 (50 pM) and IL-12 (10 ng/ml) in an ELISPOT assay to determine IFNγ and GzB secretion potentials. Results were quantified by an ELISPOT analyzer.

[6] = test system: EBV+ transformed B lymphoblastoid cell lines (EBV+ LCL); experiment: Viability of EBV+ LCL cultured with HDAC inhibitors, annexin/PI staining and flow cytometry (Example 1)
Procedure: Cell viability was then analyzed every 24 hours by annexin/PI staining and flow cytometry.

Purified NK cells [7] = experiment: NK cell 51Cr release cytotoxicity assay, continuous treatment or washout (Example 7); conditions: control 64%
Source text: as §1

EBV+ LCLs = experiment: Cell surface protein expression on EBV+ LCLs, flow cytometry (Example 8)
[8] = test system: NK cell-driven antibody dependent cellular cytotoxicity (ADCC) against target B cells; experiment: NK cell-driven ADCC, four hour 51Cr release assay (Example 3)
Procedure: (§2) The effects of AR-42 on EBV-specific cytotoxic T cell (CTL) cytotoxicity were assessed in vitro. Peripheral blood mononuclear cells (PBMC) and autologous EBV+ LCL were co-culturing in media containing IL-2 (50 μM) and either DSMO (control) or AR-42 (100 nM). EBV-specific CTLs were identified with anti-CD8 mAb and HLAB8-RAK tetramer, upon a 12 day expansion, the results of which are shown in FIG. 10. […] At day 13, the EBV-specific CTLs were incubated overnight in 100, 250, & 500 nM AR-42+IL-2 (50 μM). The next day, a four hour ^51Cr release assay was performed on each incubated sample in order to access the effects of AR-42 on EBV-specific cytotoxic T cell (CTL) cytotoxicity. This is shown schematically in FIG. 2, which illustrates autologous target EBV+ LCLs are labeled with ^51Cr, which is actively internalized by each cell via pumps in its membrane; effector CTLs are counted and plated at desired effector-target ratios; labeled targets are incubated with effectors for four hours; and lysed targets release intracellular ^51Cr into the supernatant, which is harvested and analyzed for radioactivity using a gamma counter. Effector-target ratios of 50:1, 25:1, and 12.5:1 were used.
The effects of AR-42 on NK cell-driven antibody dependent cellular cytotoxicity (ADCC) were assessed in vitro. NK cells were treated overnight with AR-42 (100 nM, 250 nM, 500 nM) or Rituximab (anti-CD20) or Herceptin (anti-erbB2). Rituximab (anti-CD20) was the antibody of choice for the assay because of its wide clinical use and proven efficacy against B cell lymphomas that express CD20 antigen. Herceptin (anti-erbB2), a commonly used breast cancer drug, was used as a negative control. The effect of AR-42 on NK cell-driven antibody dependent cellular cytotoxicity (ADCC) was assessed using a four hour ^51Cr release assay. The four hour ^51Cr release assay was performed as described with respect to Example 2A, except that effector-target ratios of 25:1, 12.5:1, & 6.25:1 were used.

[9] = test system: Activated EBV-specific T cells; experiment: T cell IFNγ and GzB ELISPOT (Example 4); conditions: 4 days; for T cell IFNγ secretion, ELISPOT: untreated control 98 spots; for T cell GzB secretion, ELISPOT: untreated control 107 spots
Procedure: The production of proteins associated with the T cell cytotoxic response (interferon-γ, granzyme B) was determined in vitro. Activated EBV-specific T cells were initially treated for 4 days (T) with 100 nM or 500 nM AR-42 and further stimulated with EBV+ LCLs (effector-target ratio: 1:1) in an ELISPOT assay to determine IFNγ and GzB secretion potentials. Release of interferon-gamma (IFNγ) or granzyme B (GzB) was visualized using monoclonal IFNγ/GzB antibodies with BCIP/NBT substrate solution. Results were quantified by an enzyme-linked immunosorbent spot assay (ELISPOT) analyzer.

[10] = test system: EBV-specific cytotoxic T cell (CTL) cytotoxicity against autologous EBV+ LCLs; experiment: EBV-specific CTL cytotoxicity, four hour 51Cr release assay (Example 2)
Procedure: as §2

LCLs (C7M3, DC9) = experiment: Viability and proliferation of lymphoblastoid cell lines (Example 1A); conditions: 100, 250, 500, 750 and 1000 nM
Procedure: The effects of AR-42 on the viability and proliferation of lymphoblastoid cell lines was determined. […] Cell viability was analyzed by annexin/PI staining and flow cytometry. Cell counts were measured at day 5. The results are seen in FIGS. 14A and 14B. In FIGS. 14A and 14B, the standard deviation represents the results from triplicate experiments.

CC(C)C(C(=O)Nc1ccc(C(=O)NO)cc1)c1ccccc1 (stereo not drawn) [AR-42, N-hydroxy-4-(3-methyl-2-phenyl-butyrylamino)-benzamide]
NK cell IFNγ secretion, ELISPOT (Purified NK cells [1]; AR-42 100 nM treated): 207 spots
NK cell IFNγ secretion, ELISPOT (Purified NK cells [1]; AR-42 100 nM, 24 hour treatment+24 hour washout): 418 spots
NK cell IFNγ secretion, ELISPOT (Purified NK cells [1]; AR-42 250 nM treated): 10 spots
NK cell IFNγ secretion, ELISPOT (Purified NK cells [1]; AR-42 250 nM, 24 hour treatment+24 hour washout): 235 spots
NK cell IFNγ secretion, ELISPOT (Purified NK cells [1]; AR-42 500 nM treated): 6 spots
NK cell IFNγ secretion, ELISPOT (Purified NK cells [1]; AR-42 500 nM, 24 hour treatment+24 hour washout): 96 spots
viability of PBMCs [2]: decreases the viability of PBMCs in a dose dependent manner
cytotoxic function of activated T cells [3]: eventual loss of cytotoxic function
EBV-specific T-cell expansion [4]: decreases EBV-specific T-cell expansion in a dose dependent manner
expression of inhibitory receptor KIR on NK cells (purified CD56+ NK cells; especially at 500 nM): down modulates
expression of activating NK cell receptor NKG2D (purified CD56+ NK cells): down modulate
NK cell GzB, ELISPOT (Purified NK cells [5]; 100 nM overnight): 22 spots
NK cell IFNγ, ELISPOT (Purified NK cells [5]; 100 nM overnight): 63 spots
NK cell GzB, ELISPOT (Purified NK cells [5]; 250 nM overnight): 7 spots
NK cell IFNγ, ELISPOT (Purified NK cells [5]; 250 nM overnight): 10 spots
NK cell GzB, ELISPOT (Purified NK cells [5]; 500 nM overnight): 10 spots
NK cell IFNγ, ELISPOT (Purified NK cells [5]; 500 nM overnight): 1 spots
concentration that inhibits EBV+ LCL growth [6]: ≥ 250 nM
viability at day 4 compared with day 2 ([6]; 750 and 1000 nM): higher viability by day 4
viability at 0.25 µM ([6]; Lymphoblastoid cell, 48 h, 250 nM, day 2, read-out: viability of B cell population): 87%
viability at 0.5 µM ([6]; Lymphoblastoid cell, 48 h, 500 nM, day 2, read-out: viability of B cell population): 75%
viability at 0.75 µM ([6]; Lymphoblastoid cell, 48 h, 750 nM, day 2, read-out: viability of B cell population): 62%
viability at 1 µM ([6]; Lymphoblastoid cell, 48 h, 1000 nM, day 2, read-out: viability of B cell population): 54%
NK cytotoxic activity (Purified NK cells [7]; 100 nM treated, max E:T ratio): 36%
NK cytotoxic activity (Purified NK cells [7]; 100 nM, washout): 41%
NK cytotoxic activity (Purified NK cells [7]; 250 nM treated, max E:T ratio): 23%
NK cytotoxic activity (Purified NK cells [7]; 250 nM, washout): 36%
NK cytotoxic activity (Purified NK cells [7]; 500 nM treated, max E:T ratio): 1%
NK cytotoxic activity (Purified NK cells [7]; 500 nM, washout): 42%
Mic A/B (NKG2D ligand) expression on EBV+ LCLs (EBV+ LCLs; 500 nM and 1000 nM, 24 and 48 hours): unaffected
MHC Class I expression (KIR ligand) on EBV+ LCLs (EBV+ LCLs; higher concentrations (500 nM and 1000 nM, 24 and 48 hours)): down modulates
NK cytotoxicity (ADCC) in combination with rituximab ([8]; 100 nM overnight, highest effector-target ratio (25:1)): 36%
NK cytotoxicity (ADCC) in combination with rituximab ([8]; 250 nM overnight, highest effector-target ratio (25:1)): 23%
NK cytotoxicity (ADCC) in combination with rituximab ([8]; 500 nM overnight): 1.1%
T cell IFNγ secretion, ELISPOT ([9]; 100 nM): 47 spots
T cell GzB secretion, ELISPOT ([9]; 100 nM): 99 spots
T cell IFNγ secretion, ELISPOT ([9]; 500 nM): 3 spots
T cell GzB secretion, ELISPOT ([9]; 500 nM): 5 spots
CTL cytotoxicity ([10]; 100 nM overnight, highest effector-target ratio (50:1)): 19%
CTL cytotoxicity ([10]; 250 nM overnight, highest effector-target ratio (50:1)): 12%
CTL cytotoxicity ([10]; 500 nM overnight): −2%
antiproliferative activity in EBV+ LCL cell lines (LCLs (C7M3, DC9)): antiproliferative activity in EBV+ LCL cell lines in a dose dependent manner

O=C(CCCCCCC(=O)Nc1ccccc1)NO [SAHA, suberoylanilide hydroxamic acid, reference compound]
NK cell IFNγ secretion, ELISPOT (Purified NK cells [1]; SAHA 100 nM treated): 452 spots
NK cell IFNγ secretion, ELISPOT (Purified NK cells [1]; SAHA 500 nM treated): 366 spots
NK cell IFNγ secretion, ELISPOT (Purified NK cells [1]; SAHA 1000 nM treated): 166 spots
expression of activating NK cell receptor NKG2D (purified CD56+ NK cells): down modulate
B cell death ([6]; 250-2000 nM, 4 day incubation): little cell death
viability at 4 µM ([6]; Lymphoblastoid cell, 96 h, 4000 nM, day 4, read-out: viability of B cell population): 69%

CCCC(CCC)C(=O)O [valproate, reference compound]
NK cell IFNγ secretion, ELISPOT (Purified NK cells [1]; valproate 1 mM): 446 spots
NK cell IFNγ secretion, ELISPOT (Purified NK cells [1]; valproate 2 mM): 238 spots
viability at 2000 µM ([6]; Lymphoblastoid cell, 72 h, 2.0 mM, day 3, read-out: viability of B cell population): 83%
viability at 3000 µM ([6]; Lymphoblastoid cell, 72 h, 3 mM, day 3, read-out: viability of B cell population): 73%
viability at 4000 µM ([6]; Lymphoblastoid cell, 72 h, 4.0 mM, day 3, read-out: viability of B cell population): 63%
viability at 4000 µM ([6]; Lymphoblastoid cell, 96 h, 4 mM, day 4, read-out: viability of B cell population): 71%

rituximab: anti-CD20 antibody used for the ADCC assay
relative ADCC ([8]; NK cells not treated with AR-42, effector-target ratio 6.25:1): 52%
relative ADCC ([8]; NK cells not treated with AR-42, effector-target ratio 12.5:1): 56%
relative ADCC ([8]; NK cells not treated with AR-42, effector-target ratio 25:1): 64%
